In patent US7223759B2, “Antibacterial 3,5-diaminopiperidine-substituted aromatic and heteroaromatic compounds” (Anadys Pharmaceuticals, Inc., priority 2003, dated 2007):
Read-outs that look alike come from different tables or passages of the source.

System: Escherichia coli (ATCC25922) or Staphylococcus aureus (ATCC25923)
Assay: Antibacterial MIC, microdilution method in Mueller-Hinton medium
Assay type: cell-based
Settings: for MIC: Escherichia coli, 18 h, read-out: Potency (MIC)
Method in brief: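 Read after 18 h incubation at 35° C, MIC is the lowest compound level that blocked growth. Compounds were tested in duplicate over 64–0.5 μg/ml two-fold dilutions using Mueller-Hinton microdilution per NCCLS standard.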

[1] = MIC in E. coli or S. aureus, two-fold serial dilutions 64 to 0.5 μg/ml in duplicate, 18 hours of incubation at 35° C.

| SMILES | MIC | also measured |
| --- | --- | --- |
| NC[C@@H]1C[C@H](N)CN1c1nc(Nc2ccc(NC(=O)c3ccc(Cl)cc3O)c(O)c2)nc(N2C[C@H](N)C[C@H](N)C2)n1 [N-{4-[4-((2S,4S)-4-Amino-2-aminomethyl-pyrrolidin-1-yl)-6-((3R,5S)-3,5-diamino-piperidin-1-yl)-[1,3,5]triazin-2-ylamino]-2-hydroxy-phenyl}-4-chloro-2-hydroxy-benzamide] | < 16 µg/mL | – |
| NC[C@@H]1C[C@H](N)CN1c1nc(Nc2ccc(NC(=O)c3ccc(Cl)cc3)c(O)c2)nc(N2C[C@H](N)C[C@H](N)C2)n1 [N-{4-[4-((2S,4S)-4-Amino-2-aminomethyl-pyrrolidin-1-yl)-6-((3R,5S)-3,5-diamino-piperidin-1-yl)-[1,3,5]triazin-2-ylamino]-2-hydroxy-phenyl}-4-chloro-benzamide] | < 16 µg/mL | – |
| Cc1ccc(C(=O)Nc2ccc(Nc3nc(N4C[C@H](N)C[C@H](N)C4)nc(N4C[C@@H](N)C[C@H]4CN)n3)cc2O)cc1 [N-{4-[4-((2S,4S)-4-Amino-2-aminomethyl-pyrrolidin-1-yl)-6-((3R,5S)-3,5-diamino-piperidin-1-yl)-[1,3,5]triazin-2-ylamino]-2-hydroxy-phenyl}-4-methyl-benzamide] | < 64 µg/mL | – |
| Cc1ccc(S(=O)(=O)N(Cc2ccccc2)c2ccc(Nc3nc(N4C[C@H](N)C[C@H](N)C4)nc(N4C[C@@H](N)C[C@H]4CN)n3)cc2O)cc1 [N-{4-[4-((2S,4S)-4-Amino-2-aminomethyl-pyrrolidin-1-yl)-6-((3R,5S)-3,5-diamino-piperidin-1-yl)-[1,3,5]triazin-2-ylamino]-2-hydroxy-phenyl}-N-benzyl-4-methyl-benzenesulfonamide] | < 64 µg/mL | – |
| N[C@@H]1C[C@H](N)CN(c2nc(Nc3ccc(NC(=O)c4ccc(Cl)cc4)c(O)c3)nc(N3C[C@@H](N)C[C@H]3CO)n2)C1 [N-{4-[4-((2S,4S)-4-Amino-2-hydroxymethyl-pyrrolidin-1-yl)-6-((3R,5S)-3,5-diamino-piperidin-1-yl)-[1,3,5]triazin-2-ylamino]-2-hydroxy-phenyl}-4-chloro-benzamide] | < 64 µg/mL | – |
| Cc1ccc(S(=O)(=O)N(Cc2ccccc2)c2ccc(Nc3nc(N4C[C@H](N)C[C@H](N)C4)nc(N4C[C@@H](N)C[C@H]4CO)n3)cc2O)cc1 [N-{4-[4-((2S,4S)-4-Amino-2-hydroxymethyl-pyrrolidin-1-yl)-6-((3R,5S)-3,5-diamino-piperidin-1-yl)-[1,3,5]triazin-2-ylamino]-2-hydroxy-phenyl}-N-benzyl-4-methyl-benzenesulfonamide] | < 64 µg/mL | – |
| NC[C@@H]1C[C@H](N)CN1c1nc(Nc2ccc(NC(=O)C(=O)c3c[nH]c4ccccc34)c(O)c2)nc(N2C[C@H](N)C[C@H](N)C2)n1 [N-{4-[4-((2S,4S)-44-Amino-2-aminomethyl-pyrrolidin-1-yl)-6-((3R,5S)-3,5-diamino-piperidin-1-yl)-[1,3,5]triazin-2-ylamino]-2-hydroxy-phenyl}-2-(1H-indol-3-yl)-2-oxo-acetamide] | – | Potency (MIC) [1]: ++ (++ means MIC<16 μg/ml in E. coli or S. aureus) |
| Cc1ccc(S(=O)(=O)N(Cc2ccccc2)c2ccc(Nc3nc(N4C[C@H](N)C[C@H](N)C4)nc(N4CC[C@H](O)[C@H](CN)C4)n3)c(O)c2)cc1 [N-{4-[4-((3R,4S)-3-Aminomethyl-4-hydroxy-piperidin-1-yl)-6-((3R,5S)-3,5-diamino-piperidin-1-yl)-[1,3,5]triazin-2-ylamino]-3-hydroxy-phenyl}-N-benzyl-4-methyl-benzenesulfonamide] | < 64 µg/mL | – |
| NC[C@@H]1C[C@H](CN)CN(c2nc(Nc3ccc(NC(=O)c4ccc(Cl)cc4)c(O)c3)nc(N3C[C@H](N)C[C@H](N)C3)n2)C1 [N-{4-[4-((3R,5S)-3,5-Bis-(aminomethyl)-piperidin-1-yl)-6-((3R,5S)-3,5-diamino-piperidin-1-yl)-[1,3,5]triazin-2-ylamino]-2-hydroxy-phenyl}-4-chloro-benzamide] | < 16 µg/mL | – |
| Cc1ccc(C(=O)Nc2ccc(Nc3nc(N4CCN(c5ccncc5)CC4)nc(N4C[C@H](N)C[C@H](N)C4)n3)cc2O)cc1 [N-{4-[4-((3R,5S)-3,5-Diamino-piperidin-1-yl)-6-(4-pyridin-4-yl-piperazin-1-yl)-[1,3,5]triazin-2-ylamino]-2-hydroxy-phenyl}-4-methyl-benzamide] | – | MIC [1]: < 64 µg/mL |
| Cc1ccc(C(=O)Nc2ccc(Nc3nc(N4CCCCC4)nc(N4CCC(N5CCCC5)CC4)n3)cc2O)cc1 [N-{4-[4-((3R,5S)-3,5-Diamino-piperidin-1-yl)-6-(4-pyrrolidin-1-yl-piperidin-1-yl)-[1,3,5]triazin-2-ylamino]-2-hydroxy-phhenyl}-4-methyl-benzamide] | – | MIC [1]: < 64 µg/mL |
| Cc1ccc(C(=O)Nc2ccc(Nc3nc(N4C[C@H](N)C[C@H](N)C4)nc(N4CCC[C@@H](O)C4)n3)cc2O)cc1 [N-{4-[4-((3R,5S)-3,5-Diamino-piperidin-1-yl)-6-((R)-3-hydroxy-piperidin-1-yl)-[1,3,5]triazin-2-ylamino]-2-hydroxy-phenyl}-4-methyl-benzamide] | > 64 µg/mL | – |
| Cc1ccc(C(=O)Nc2ccc(Nc3nc(NC4CCNCC4)nc(N4C[C@H](N)C[C@H](N)C4)n3)cc2O)cc1 [N-{4-[4-((3R,5S)-3,5-Diamino-piperidin-1-yl)-6-(piperidin-4-ylamino)-[1,3,5]triazin-2-ylamino]-2-hydroxy-phenyl}-4-methyl-benzamide] | < 16 µg/mL | – |
| COc1nc(Nc2ccc(NC(=O)c3ccc(C)cc3)c(O)c2)nc(N2C[C@H](N)C[C@H](N)C2)n1 [N-{4-[4-((3R,5S)-3,5-Diamino-piperidin-1-yl)-6-methoxy-[1,3,5]triazin-2-ylamino]-2-hydroxy-phenyl}-4-methyl-benzamide] | < 64 µg/mL | – |
| Cc1ccc(C(=O)Nc2ccc(Nc3nc(N4C[C@H](N)C[C@H](N)C4)nc(N4C[C@H](CN)C[C@H](CN)C4)n3)cc2O)cc1 [N-{4-[4-((3S,5R)-3,5-Bis-(aminomethyl)-piperidin-1-yl)-6-((3R,5S)-3,5-diamino-piperidin-1-yl)-[1,3,5]triazin-ylamino]-2-hydroxy-phenyl}-4-methyl-benzamide] | < 64 µg/mL | – |
| Cc1ccc(S(=O)(=O)N(Cc2ccccc2)c2ccc(Nc3nc(C4CCCCC4)nc(N4CCCCC4)n3)cc2O)cc1.Cl [N-{4-[4-((3S,5R)-3-Amino-5-hydroxy-piperidin-1-yl)-6-((3R,5S)-3,5-diamino-piperidin-1-l)-[1,3,5]triazin-2-ylamino]-2-hydroxy-phenyl}-N-benzyl-4-methyl-benzenesulfonamide] | – | MIC [1]: < 64 µg/mL |
| Cc1ccc(C(=O)Nc2ccc(Nc3nc(N4C[C@H](N)C[C@H](N)C4)nc(N4C[C@@H](N)C[C@@H](O)C4)n3)cc2O)cc1 [N-{4-[4-((3S,5R)-3-Amino-5-hydroxy-piperidin-1-yl)-6-((3R,5S)-3,5-diamino-piperidin-1-yl)-[1,3,5]triazin-2-ylamino]-2-hydroxy-phenyl}-4-methyl-benzamide] | < 64 µg/mL | – |
| N[C@@H]1C[C@H](N)CN(c2nc(Nc3ccc(NC(=O)c4ccc(Cl)cc4)c(O)c3)nc(N3C[C@@H](N)C[C@@H](O)C3)n2)C1 [N-{4-[4-((3S,5R)-3-Amino-5-hydroxy-piperidin-1-yl)-6-((3S,5R)-3,5-diamino-piperidin-1-yl)-[1,3,5]triazin-2-ylamino]-2-hydroxy-phenyl}-4-chloro-benzamide] | < 16 µg/mL | – |
